These are literature values, as cited in patent US9023374B2, “Sanitizing compositions” (priority 2009, dated 2015).

The structures appear in SMILES notation. Read-outs that look alike come from different tables or passages of the source.

Data set [1] deals with feline calicivirus. As to conditions: room temperature.
The test system of data set [2] is feline calicivirus.

On to `CCO` [70% w/w ethanol, ethanol], for which the figures for the “log10 reduction of feline calicivirus” value in data set [1] (after 8 minutes) and in data set [1] (after 30 minutes) were under 2 log10 and 3 log10, respectively.

Regarding `CCO` [ethanol], the “inactivation of feline calicivirus” value in data set [2] is listed as “failed to inactivate the virus”.
